# Patent publication US6207666A, “Method for treating a patient having precancerous lesion with 4-phenylphthalazine derivatives” (Cell Pathways, Inc., priority 1998, dated 2001)
# What was measured:
# HT-29 cells = experiment: Apoptosis and necrosis by fluorescent microscopy (acridine orange and ethidium bromide) in confluent HT-29 cultures; assay type: cell-based, human
# Experimental: Drug stock solutions were made in 100% DMSO then diluted with RPMI media for cell culture testing. All drug solutions were prepared fresh on the day of testing. The cultured cells were obtained at passage #118 and grown in RPMI media supplemented with 5% fetal calf serum, and 2 mM glutamine, 100 U/ml penicillin, 100 U/ml streptomycin, and 0.25 μg/ml amphotericin. The cultures were maintained in a humidified atmosphere of 95% air and 5% CO2 at 37° C. The cultures were passaged at preconfluent densities using a solution of 0.05% trypsin and 0.53 mM EDTA. All experiments involved HT-29 cells between passages 120 and 140. Cells were plated at the following densities to obtain cultures used for the experiments: 500 cells/well for 96 well flat-bottom microtiter plates, 1×10^6 cells per 25 cm^2 flask, or 4×10^6 cells per 75 cm^2 flask. Apoptosis and necrosis were measured using an assay which allowed for the simultaneous measurement of both types of cell death based on morphological characteristics of apoptotic cells (i.e., condensed chromatin) and membrane permeability. Drug preparation and cell culture conditions were the same as above. Confluent cultures were assayed for apoptosis and necrosis by fluorescent microscopy following labeling with acridine orange and ethidium bromide. Floating and attached cells were collected by trypsinization and washed three times in PBS. One ml aliquots of 1×10^6 cells were centrifuged (300 g). The pellet was resuspended in 25 μl media and 1 μl of a dye mixture containing 100 μg/ml acridine orange and 100 μg/ml ethidium bromide prepared in PBS and mixed gently. Ten μl of mixture was placed on a microscope slide and with a 22 mm^2 coverslip and examined under 40 x dry objectives using epilumination and filter combination. An observer blinded to the identity of the treatments scored at least 100 cells per sample. Apoptotic cells were identified by nuclear condensation of chromatin stained by the acridine orange or ethidium bromide. Necrotic cells were identified by uniform labeling of the cell with ethidium bromide. Data was also obtained, under the same procedure above, for the percent of apoptotic cells induced by treatment with varying concentrations of compound No. 17.
# [1] = tested on: mammary lesions (mouse mammary gland organ culture); experiment: DMBA-induced mammary lesions in mouse mammary gland organ culture; assay type: cell-based, mouse (female BALB/c); conditions: for Glands with Lesions: vehicle 11 of 15; for Percent Incidence (mammary lesions): vehicle 73.33
# Experimental: Compound No. 17 was also tested for its ability to inhibit the incidence of mammary lesions in an organ culture system. This mouse mammary gland organ culture technique has been successfully used by other investigators to study the effects of known cancer-chemopreventative agents such as retinoids and selenium.
# Female BALB/c mice, 28 days old, were treated for nine days with a combination of […] of estradiol and 1 mg of progesterone daily, in order to prime the glands to be responsive to hormones in vitro. The animals were sacrificed and thoracic mammary glands were excised aseptically and incubated for ten days in growth media supplemented with growth-promoting hormones: insulin, prolactin, and hydrocortisone, at 5 μg/ml each and aldosterone at 1 μg/ml. A twenty-four hour treatment of 7,12-dimethylbenz(a)anthracene (DMBA, 2 μg/ml) was carried out between days three and four to induce the formation of mammary lesions. Fully developed glands were deprived of prolactin, hydrocortisone, and aldosterone for 14 days, resulting in the regression of the glands but not the mammary lesions.
# In order to evaluate the effects of Compound No. 17, it was dissolved in DMSO and added to the culture media supplemented for the duration of the culture period. At the end of the culture period, the glands were fixed in 10%. formalin, stained with alum carmine, and mounted on glass slides. The incidence of forming mammary lesions is the ratio of the glands with mammary lesions and glands […]. The incidence of mammary lesions in compound 17 treated glands was compared with that of the untreated glands.
# The extent of the area occupied by the mammary lesions was quantitated by projecting an image of the gland onto a digitation pad. The area covered by the gland was traced on the pad and considered as 100% of the area. The space covered by each of the unregressed structures was also outlined on the digitization pad and quantitated by the computer.
# [2] = tested on: human colon carcinoma cell line, HT-29; experiment: HT-29 tumor cell growth inhibition, Sulforhodamine B (SRB) protein binding assay, six days continuous exposure; assay type: cell-based; conditions: for SRB Binding (A550): vehicle 0.801 ± 0.137
# Experimental: Compound No. 17, 1-(3-chloroanilino)-4-phenylphthalazine, was assayed for its effect on the human colon carcinoma cell line, HT-29 obtained from ATCC, (Rockville, Md.) to ascertain the degree of growth inhibition. Growth inhibition of this cell line is thought to be indicative of a benefit on precancerous lesions and neoplasms. The cell line and growth assay employed for these experiments is well characterized, and is used by the United States National Cancer Institute in its screening program for new anti-cancer drugs.
# Drug stock solutions were made in 100% DMSO then diluted with RPMI media for cell culture testing. All drug solutions were prepared fresh on the day of testing. The cultured cells were obtained at passage #118 and grown in RPMI media supplemented with 5% fetal calf serum, and 2 mM glutamine, 100 U/ml penicillin, 100 U/ml streptomycin, and 0.25 μg/ml amphotericin. The cultures were maintained in a humidified atmosphere of 95% air and 5% CO2 at 37° C. The cultures were passaged at preconfluent densities using a solution of 0.05% trypsin and 0.53 mM EDTA. All experiments involved HT-29 cells between passages 120 and 140. Cells were plated at the following densities to obtain cultures used for the experiments: 500 cells/well for 96 well flat-bottom microtiter plates, 1×10^6 cells per 25 cm^2 flask, or 4×10^6 cells per 75 cm^2 flask.
# Tumor cell growth inhibition was assessed using the Sulforhodamine B (SRB) protein binding assay. In this assay, tumor cells were plated in 96-well plates and treated with drug-containing media for six days (continuous exposure). For each plate, 6 wells were designated as no treatment controls, six wells as vehicle (0.1% DMSO) controls, and the remaining wells for drug dilutions with six wells per drug concentration. At the end of the exposure period, the cells were fixed and stained with sulforhodamine B, a protein binding dye. The dye was then solubilized, and the optical density of the resulting solution was determined on a 96-well plate reader. The mean dye intensity of the treated wells was then divided by the mean dye intensity in the control wells (6 wells of each) to determine the effect of the drug on the cells. Dye intensity is proportional to the number of cells or amount of protein per well. The resultant "percent inhibition" value then represents the degree of growth inhibition caused by the drug in Table 4 below.
structure (smiles),measurement,setting,value
"Clc1cccc(Nc2nnc(-c3ccccc3)c3ccccc23)c1 [Compound No. 17, 1-(3-Chloroanilino)-4-phenylphthalazine]",% Apoptotic Cells,"HT-29 cells; 1 μM (Table 6), 0 μM gives 4%",12%
same,% Apoptotic Cells,"HT-29 cells; 5 μM (Table 6), 0 μM gives 4%",13%
same,% Apoptotic Cells,"HT-29 cells; 10 μM (Table 6), 0 μM gives 4%",7%
same,% Apoptotic Cells,"HT-29 cells; 25 μM (Table 6), 0 μM gives 4%",8%
same,% Necrotic Cells,"HT-29 cells; 40 μM, HT-29, vehicle 2%, none 5%",6%
same,% Apoptotic Cells,"HT-29 cells; 40 μM, HT-29, vehicle 9%, none 7%",83%
same,% Apoptotic Cells,"HT-29 cells; 50 μM (Table 6), 0 μM gives 4%",78%
same,Glands with Lesions,"[1]; 10 μM, of 13 glands",7
same,Percent Incidence (mammary lesions),[1]; 10 μM,53.85%
same,Glands with Lesions,"[1]; 100 μM, of 15 glands",4
same,Percent Incidence (mammary lesions),[1]; 100 μM,26.67%
same,inhibition at 10 µM,"[1]; Mus musculus, 10 μM, read-out: Percent Inhibition (mammary lesions)",27%
same,inhibition at 100 µM,"[1]; Mus musculus, 100 μM, read-out: Percent Inhibition (mammary lesions)",64%
same,SRB Binding (A550),[2]; 1 μM,0.851 ± 0.059
same,SRB Binding (A550),[2]; 10 μM,0.007 ± 0.003
same,SRB Binding (A550),[2]; 100 μM,0.009 ± 0.010
same,inhibition at 1 µM,"[2]; Homo sapiens, 144 h, 1 μM",0%
same,inhibition at 10 µM,"[2]; Homo sapiens, 144 h, 10 μM",100%
same,inhibition at 100 µM,"[2]; Homo sapiens, 144 h, 100 μM",100%
